The target of test [1] is T1, ligand-binding domain of RORγ (RORγ-LBD) (Homo sapiens, UniProt P51449).
T1 construct: purchased Invitrogen
T1 sequence (P51449 269-508 limits assumed): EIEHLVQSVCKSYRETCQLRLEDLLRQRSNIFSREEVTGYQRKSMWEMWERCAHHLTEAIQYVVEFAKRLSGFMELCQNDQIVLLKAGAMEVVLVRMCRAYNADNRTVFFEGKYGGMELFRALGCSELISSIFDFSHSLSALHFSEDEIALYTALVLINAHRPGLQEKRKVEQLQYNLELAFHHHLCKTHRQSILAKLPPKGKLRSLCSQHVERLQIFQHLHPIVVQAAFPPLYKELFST
The test is described as follows: Inhibitory effect on RORγ-coactivator binding (LanthaScreen TR-FRET RORγ Coactivator Assay). The settings on record: at 33 μmol/L of the test compound; read-out: RORγ-coactivator binding inhibition rate (%). In a few lines: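 TR-FRET: 4 nmol/L GST-RORγ-LBD with compound (1% DMSO) in Coregulator Buffer D plus 5 mmol/L DTT, then 150 nmol/L fluorescein-TRAP220/DRIP-2 and 32 nmol/L Tb-anti-GST antibody; 16–24 hours at room temperature. 520/495 nm ratio (320 nm excitation), background-corrected against control, gives % inhibition of coactivator binding.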

The subject of test [2] is IL-17 production in mouse splenocytes. In words: Suppressive effect on IL-17 production by IL-23 stimulation in mouse splenocytes. The settings on record: Splenocyte, 72 h, at 5 μmol/L of the test compound, 10 ng/mL human IL-23, 3 days, read-out: IL-17 production inhibition rate (%). Format: cell-based. In a few lines: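 Splenocytes from male C57BL/6J mice (3×10^5/well, with 100 U/mL human IL-2) stimulated with 10 ng/mL human IL-23 plus compound (0.1% DMSO) for 3 days at 37 °C. Supernatant IL-17 measured by ELISA; inhibition calculated against unstimulated and IL-23-only wells.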

The results in this text go back to patent US10364222B2, “Cyclic amine derivative and medical use thereof” (Toray Industries, Inc., priority 2016, dated 2019).

With `COC(=O)N1CCCCC1C(=O)Nc1ccc(-c2ccccc2OC(F)(F)F)c(Cl)c1` (stereo not shown) [Example 19, methyl 2-((2-chloro-2′-(trifluoromethoxy)-[1,1′-biphenyl]-4-yl)carbamoyl)piperidine-1-carboxylate], the inhibition at 33 µM in test [1] was found to be 93.4%. Besides, in test [2], the inhibition at 5 µM was found to be 99.8%.

As for `CCN(CC(=O)N1CCCCC1C(=O)Nc1ccc(-c2ccccc2OC(F)(F)F)c(Cl)c1)S(C)(=O)=O` (stereo not shown) [Example 37, N-(2-chloro-2′-(trifluoromethoxy)-[1,1′-biphenyl]-4-yl)-1-(2-(N-ethylmethylsulfonamide)acetyl)piperidine-2-carboxamide], the inhibition at 33 µM in test [1] is 104%. Also, the inhibition at 5 µM in test [2] was found to be 99.1%.

Regarding `CCS(=O)(=O)N1CCCCC1C(=O)Nc1ccc(-c2ccccc2OC(F)(F)F)c(Cl)c1` (stereo not shown) [Example 14, N-(2-chloro-2′-(trifluoromethoxy)-[1,1′-biphenyl]-4-yl)-1-(ethylsulfonyl)piperidine-2-carboxamide], in test [1], the inhibition at 33 µM was 94%. In addition, the inhibition at 5 µM in test [2] turned out to be 90.5%.

`COC(=O)CCCC(=O)N1CCCC[C@@H]1C(=O)Nc1ccc(-c2ccccc2OC(F)(F)F)c(Cl)c1` [Example 69, methyl (R)-5-(2-((2-chloro-2′-(trifluoromethoxy)-[1,1′-biphenyl]-4-yl)carbamoyl)piperidin-1-yl)-5-oxopentanoate]: the inhibition at 33 µM in test [1] was 95.9%. Moreover, in test [2], the inhibition at 5 µM was determined as 99.5%.

`COC(=O)CC(=O)N1CCCCC1C(=O)Nc1ccc(-c2ccccc2OC(F)(F)F)c(Cl)c1` (stereo not shown) [Example 43, methyl 3-(2-((2-chloro-2′-(trifluoromethoxy)-[1,1′-biphenyl]-4-yl)carbamoyl)piperidin-1-yl)-3-oxopropanoate]: the inhibition at 33 µM in test [1] turned out to be 99%. The inhibition at 5 µM in test [2] is 92.4%.

On to `COCCC(=O)N1CCCCC1C(=O)Nc1ccc(-c2ccccc2OC(F)(F)F)c(Cl)c1` (stereo not shown) [Example 45, N-(2-chloro-2′-(trifluoromethoxy)-[1,1′-biphenyl]-4-yl)-1-(3-methoxypropanoyl)piperidine-2-carboxamide], for which the inhibition at 33 µM in test [1] amounted to 92%. In test [2], the inhibition at 5 µM came out at 99.9%.

Consider `Cn1ccnc1CC(=O)N1CCCCC1C(=O)Nc1ccc(-c2ccccc2OC(F)(F)F)c(Cl)c1` (stereo not shown) [Example 50, N-(2-chloro-2′-(trifluoromethoxy)-[1,1′-biphenyl]-4-yl)-1-(2-(1-methyl-1H-imidazol-2-yl)acetyl)piperidine-2-carboxamide], for which the inhibition at 33 µM in test [1] was 101%. Besides, the inhibition at 5 µM in test [2] came to 94.5%.

Regarding `O=C(Nc1ccc(-c2ccccc2OC(F)(F)F)c(Cl)c1)C1CCCCN1C(=O)Cc1ccco1` (stereo not shown) [Example 54, 1-(2-(furan-2-yl)acetyl)-N-(2-chloro-2′-(trifluoromethoxy)-[1,1′-biphenyl]-4-yl)piperidine-2-carboxamide], the inhibition at 33 µM in test [1] amounted to 102%. The inhibition at 5 µM in test [2] was 98.7%.
